Source: patent US8742082B2, “Compositions and methods for influencing satiety, lipid metabolism, and fat utilization” (Nestec S.A., priority 2008, dated 2014)

Legend:
[1] = Chronic oral OEA in high fat diet: liver, adipose fat pads and body weight; type: in vivo; details: C3H mice, 4 weeks
From the text: The physiological and biochemical effects of chronic oral OEA administration were investigated. Mice were chronically fed with OEA, provided as a supplement during 4 weeks, to study the effect on body weight gain and cumulative food intake, among other parameters.
Animals, diet and experimental design. Adult male C3H mice purchased at 8 weeks of age were individually housed and maintained ad libitum on different diets and water for 2 weeks. Seven mice were allocated in 3 groups by randomization by weight, and fed with a high fat diet (lipids represented 50% of daily energy) during 2 weeks. The composition of the high fat diet per kg was: 284.5 g of corn starch, 89.5 g of saccharose, 250 g of casein, 50 g of cellulose, 10 g of a mix of vitamins (V1001), 35 g of a mix of minerals (S10026) and 281 g of canola oil (UPAE, Jouy en Josas, France). Then, OEA was added to the diets at different levels to provide 0, 10, or 100 mg OEA/kg body weight. The mice were kept on each respective diet for 4 weeks. During the nutritional intervention, daily food intake was monitored and the mice were weighed 3 times a week.
Sampling. At the end of the experimental period, mice were sacrificed by blood drawing after anesthesia with isoflurane. Plasma was obtained by centrifugation (1,000 g for 10 min at 4° C.). Mesenteric, epididymal, inguinal and peritoneal adipose depots, as well as liver, stomach, small intestine mucosa and gastrocnemian muscle were excised and frozen into liquid nitrogen. Plasma and organ samples were kept at −80° C. until analysis. Triglycerides, glucose, total cholesterol and HDL cholesterol were directly measured on plasma samples collected during the sacrifice by enzymatic procedures, using a Beckman Coulter Systems SYNCHRON LX 20 (Beckman Coulter, Fullerton, USA) (oxidase method, Beckman Coulter for glucose, GPO method, Beckman Coulter for TG, oxidase and esterase method, Beckman Coulter for cholesterol). HDL were isolated by specific solubilization, using a precipitation isolation kit (Beckman Coulter, Fullerton, USA).
Statistical analysis. Results were determined as mean±standard error of the mean (SEM). Statistical analysis of physiological parameters was performed by one-way ANOVA on Statview software (SAS institute, Cary, USA). Statistical significance was set up at the P<0.05 level.

CPT1 = assay: Real-time PCR gene expression in peripheral tissues: CPT1; type: in vivo; details: C57bl6j mice, high fat diet, 100 mg/kg/body weight in diet, 5 weeks
Description: (§1) The expression of 45 genes was measured by real-time PCR in peripheral tissues to identify genes that were differentially expressed in response to oral administration of oleoylethanolamide (OEA) or a non-hydrolysable OEA analog (KDS 5104), which affect satiety, lipid metabolism, fat utilization, food intake, and body fat mass.
(§2) Animals, diet, and experimental design. Adult male C57bl6j mice purchased at 8 weeks of age were individually housed and maintained ad libitum on high fat diet and water for 2 weeks. Seven mice were randomly allocated in 3 groups and fed with a high fat diet (lipids represented 50% of daily energy) for 2 weeks. For one kilogram, the composition of the high fat diet was: 235 g casein, 201 g saccharose, 3.5 g L-cystine, 85 g starch, 116 g maltodextrin, 60 g cellulose, 12 g vitamins mix (AIN-93M, UPAE, Jouy-en-Josas, France), 51.5 g mineral mix (AIN-93Vx, UPAE, Jouy-en-Josas, France), and 236 g lard. Then, either OEA or KDS 5104 was added to the diet at a concentration of 100 mg/kg/body weight. The mice were kept under treatment for 5 weeks.
(§3) Sampling. At the end of the experimental period, mice were sacrificed by blood drawing (cardiac puncture) after anesthesia with isoflurane. Plasma was obtained by centrifugation (1,000 g for 10 min at 4° C.). Mesenteric, epididymal, inguinal and peritoneal adipose depots, as well as liver, stomach, small intestine mucosa, pancreas, and gastrocnemian muscle were removed and frozen into liquid nitrogen. Plasma, urine, feces, and organ samples were kept at −80° C. until analysis.
(§4) RNA extraction and gene expression. Total RNA from liver, intestine mucous membrane, adipose tissues, gastrocnemian muscle, pancreas and stomach were extracted with TRIzol reagent (Invitrogen, Carlsbad, USA) according to the manufacturer's instruction. The RNA concentration was determined on nanodrop from the absorbance at 260 nm. Retro-transcription PCRs to synthesize cDNA were performed using an Applied Biosystem Thermal Cycler 2720 and Superscript II (Invitrogen, Carlsbad, USA) according to manufacturer's protocol. Real-time quantitative PCR (RT-qPCR) were performed on cDNA obtained as described above using a high through put system (Biomek 3000, Beckman & Coulter, Fullerton, USA) and a Lightcycler 480 (Roche/Hitachi, Basel, Switzerland) with SYBR Green Master mix+kit (Eurogentec, Philadelphia, USA). Primers for the selected genes were generated using online informatics assistance from the Lightcycler manufacturer (Roche). Databases used to identify the genes were (1) the NCBI database (GenBank) and (2) the IHOP (Information Hyperlinked over Protein) database (www.ihop-net.org/UniPub/iHOP/bng/). Values were expressed as ratio of RNA levels relative to control mice (diets with 0 mg of OEA/kg/body weight) using ΔΔ(Ct) (Livak K J & Schmittgen T D, 2001, Methods 25:402-8). Gene expression of the following genes was measured (abbreviation and GenBank Accession shown in parentheses).
(§5) Statistical analysis. […] Statistical analysis of physiological parameters and gene expression data was performed by one-way ANOVA on Statview software (SAS Institute, Cary, USA). Daily food intake was analyzed using two-way ANOVA on Statview software. Statistical significance was set up at the P<0.05 level, the P<0.01 level and the P<0.001 level. For statistical analysis of the gene expression data, values were calculated relative to 18S expression for each mouse and gene.

Adiponectin = assay: Real-time PCR gene expression in peripheral tissues: adiponectin; type: in vivo; details: C57bl6j mice, high fat diet, 100 mg/kg/body weight in diet, 5 weeks
Description: as §1, §2, §3
as §4, with “Retro-transcription PCRs to synthesize cDNA were performed using an Applied Biosystem Thermal Cycler 2720 and Superscript II (Invitrogen, Carlsbad, USA) according to manufacturer's protocol.” left out, “Primers for the selected genes were generated using online informatics assistance from the Lightcycler manufacturer (Roche). Databases used to identify the genes were (1) the NCBI database (GenBank) and (2) the IHOP (Information Hyperlinked over Protein) database (www.ihop-net.org/UniPub/iHOP/bng/).” left out
Statistical analysis. […] Daily food intake was analyzed using two-way ANOVA on Statview software. […] For statistical analysis of the gene expression data, values were calculated relative to 18S expression for each mouse and gene.

[2] = test system: Peroxisome proliferator activated receptor alpha (PPAR α); assay: Real-time PCR gene expression in peripheral tissues: PPAR α; type: in vivo; details: proximal intestine; C57bl6j mice, high fat diet, 100 mg/kg/body weight in diet, 5 weeks
Description: as §1
(§6) Animals, diet, and experimental design. Adult male C57bl6j mice purchased at 8 weeks of age were individually housed and maintained ad libitum on high fat diet and water for 2 weeks. Seven mice were randomly allocated in 3 groups and fed with a high fat diet (lipids represented 50% of daily energy) for 2 weeks. […]
(§7) RNA extraction and gene expression. […] The RNA concentration was determined on nanodrop from the absorbance at 260 nm. […] Real-time quantitative PCR (RT-qPCR) were performed on cDNA obtained as described above using a high through put system (Biomek 3000, Beckman & Coulter, Fullerton, USA) and a Lightcycler 480 (Roche/Hitachi, Basel, Switzerland) with SYBR Green Master mix+kit (Eurogentec, Philadelphia, USA). […] Values were expressed as ratio of RNA levels relative to control mice (diets with 0 mg of OEA/kg/body weight) using ΔΔ(Ct) (Livak K J & Schmittgen T D, 2001, Methods 25:402-8). Gene expression of the following genes was measured (abbreviation and GenBank Accession shown in parentheses). […]

[3] = test system: Fatty acid amide hydrolase (FAAH); assay: Real-time PCR gene expression in peripheral tissues: FAAH; type: in vivo; details: C57bl6j mice, high fat diet, 100 mg/kg/body weight in diet, 5 weeks
Description: as §1, §2, §3, §4, §5

[4] = test system: Glucose transporter 4 (Glut 4); assay: Real-time PCR gene expression in peripheral tissues: Glut 4; type: in vivo; details: muscle; C57bl6j mice, high fat diet, 100 mg/kg/body weight in diet, 5 weeks
Description: as §1, §6, §7

[5] = test system: Phosphoenolpyruvate carboxykinase (PEP CK); assay: Real-time PCR gene expression in peripheral tissues: PepCK; type: in vivo; details: liver; C57bl6j mice, high fat diet, 100 mg/kg/body weight in diet, 5 weeks
Description: as §1, §6, §7

PPAR α = molecular target: T1, PPAR α (Mus musculus, UniProt P23204); details: wild-type and PPAR α (−/−) mice; cited from earlier work
T1 construct: host or cells: wild-type mice (endogenous protein)
T1 sequence (P23204 whole entry): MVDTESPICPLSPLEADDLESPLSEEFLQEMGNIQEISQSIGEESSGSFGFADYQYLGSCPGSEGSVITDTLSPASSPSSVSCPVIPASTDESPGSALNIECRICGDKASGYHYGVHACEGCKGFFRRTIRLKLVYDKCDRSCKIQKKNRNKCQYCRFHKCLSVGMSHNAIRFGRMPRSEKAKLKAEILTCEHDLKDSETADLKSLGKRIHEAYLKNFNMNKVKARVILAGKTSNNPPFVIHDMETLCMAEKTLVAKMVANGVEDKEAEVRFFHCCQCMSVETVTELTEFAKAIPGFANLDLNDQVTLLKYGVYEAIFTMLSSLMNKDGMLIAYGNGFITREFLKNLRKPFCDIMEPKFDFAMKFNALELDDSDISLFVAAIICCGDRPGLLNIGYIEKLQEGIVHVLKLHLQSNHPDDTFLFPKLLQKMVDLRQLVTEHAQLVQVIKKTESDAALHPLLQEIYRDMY

## CCCCCCCC/C=C\CCCCCCCC(=O)NCCO [OEA, N-oleoyl-ethanolamide]
[1]; independently of the dose
  mesenteric fat pads: remained unaffected
[1]; OEA 10 or 100 mg/kg body weight
  Peritoneal adipose tissue: mainly decreased
[1]; OEA in diet
  Hepatomegaly: did not induce hepatomegaly
  final body weight: not affected
[1]; OEA in diet, P<0.05
  inguinal fat pads (indicator of subcutaneous fat depot): decreased
CPT1; liver
  CPT1 l, ratio of RNA levels relative to control mice: 1.74
CPT1; pancreas
  CPT1 p, ratio of RNA levels relative to control mice: 1.35
CPT1; proximal intestine
  CPT1 i, ratio of RNA levels relative to control mice: 2.00
Adiponectin; epidydimal adipose tissue
  adiponectin at ep, ratio of RNA levels relative to control mice: −1.14
Adiponectin; peritoneal adipose tissue
  adiponectin at per, ratio of RNA levels relative to control mice: −2.08
[2]
  PPAR α i, ratio of RNA levels relative to control mice: 1.20
[3]; epidydimal adipose tissue
  FAAH at ep, ratio of RNA levels relative to control mice: 2.22
[3]; peritoneal adipose tissue
  FAAH at per, ratio of RNA levels relative to control mice: 1.62
[3]; proximal intestine
  FAAH i, ratio of RNA levels relative to control mice: 1.68
[4]
  Glut 4 m, ratio of RNA levels relative to control mice: 3.27
[5]
  PepCK l, ratio of RNA levels relative to control mice: 1.02
PPAR α
  food intake, wild-type vs PPAR α (−/−) mice: regulates food intake in wild-type mice but not in PPAR α (−/−) mice
